# Source: PMC12467382, “Synthesis and Bioevaluation of Chalcones as Broad-Spectrum Antiviral Compounds Against Single-Stranded RNA Viruses” (Biomolecules, 2025)
# Key:
# [1] = test system: PIV5-GFP; test: RT-qPCR of PIV5 genes (F, HN, NP) in infected Hs27 cells; type: cell-based, parainfluenza virus 5; conditions: 10 µM before and after infection, MOI 10, normalized to actin
# Protocol: Hs27 cells cultured in 6-well dishes were collected in TRIzol® (Invitrogen) followed by RNA extraction. To produce cDNA, 1 μg of total RNA was used with TaqMan® Reverse Transcription Reagents (Applied Biosystems, Foster City, CA, USA) as described in the manufacturer’s instructions. Quantitative real-time PCR was performed using Bio-Rad CFX Connect Real-Time (Bio-Rad, Hercules, CA, USA) and Fast SYBR® FAST Green Master Mix (Applied Biosystems, Foster City, CA, USA). Relative gene expression was determined using CFX Manager Software (Bio-Rad, version 2.3) and the following primers (Table 1).
# To better understand how the chalcones were inhibiting virus growth, RT-qPCR was utilized to determine the effect of chalcone treatment on viral gene expression. Hs27 cells were treated with DMSO as a control or treated with 8o at a concentration of 10 µM. At 24 hpt, cells were mock infected or infected with PIV5-GFP at a high MOI and immediately replaced with media supplemented with 8o. Total RNA was collected at 2, 5, and 10 hpi and used in RT-qPCR assays to measure levels of the PIV5 genes: fusion (F) protein, hemagglutinin-neuraminidase (HN) protein, and nucleocapsid (NP) protein. Collection at various time points allows one to kinetically distinguish between the chalcone-mediated inhibition of early and late viral gene expression. Values were normalized to actin and were set relative to the DMSO-treated control of each corresponding time point.
# [2] = test system: human cytomegalovirus (HCMV); parameters: method as in PMID 23768434; conditions: cited from earlier work
smiles,measurement,setting,value
CCOc1ccc(Br)cc1/C=C/C(=O)c1c(O)cccc1OCc1ccccc1 [Chalcone 8o],"Viral gene expression (F, HN, NP) vs DMSO-treated control at 2 hpi",[1],minimal differences
same,Reduction in viral gene expression at 5 hpi,[1]; relative to DMSO,~ 5 fold
same,Reduction in viral gene expression at 10 hpi,[1]; relative to DMSO,greater than 100 fold
same,Antiviral activity against HCMV,[2],had efficacy as an antiviral agent
